Drawing on patent publication EP2769723A1, “Compounds for use in inhibiting HIV capsid assembly” (priority 2013, dated 2014), this text covers IC50 for 78 molecules.

The target of the test is T1, CA (Human immunodeficiency virus type 1 group M subtype B, UniProt P12493).
T1 construct: a fusion protein of CA with glutathione-S-transferase (CA-GST)
As to the kind of experiment: ALPHA screen (AlphaScreen): inhibition of CAI binding to CA. Also on record: species or system HIV-1. The note with it: CAI-biotin peptide / CA-GST; compounds screened at 0.5-100 µM; read-out: α screen IC50. How it is done: The AlphaScreen experiments are performed using Perkin Elmer Enspire plate reader in white 96-well ProxiPlates and PBS supplemented with 0.05% Tween20, 2mM DTT, 2% DMSO. First, Streptavidin-coated Donor beads are used to capture the CAI-biotin peptide. In the other solution, a fusion protein of CA with glutathione-S-transferase (CA-GST) is mixed with GSH Acceptor beads. Both mixtures were incubated and then mixed together. To test the ability of prepared organic compounds to inhibit the CAI binding to CA, they are screened at concentrations between 0.5-100 µM and IC50 values are calculated from the influenced signals.
Upon illumination by laser at 680 nm, Donor beads containing the photosensitizer phthalocyanine convert ambient oxygen to an excited form of singlet oxygen ^1O2. Singlet oxygen can within its half-life of ~ 4 µs diffuse approximately 200 nm in solution. If an Acceptor bead is within that proximity, which is mostly upon CA:CAI interaction, energy is transferred from the singlet oxygen to thioxene derivates within the Acceptor and signal at 520 - 620 nm is emitted.
In general terms: Alpha assays give light when donor and acceptor beads are brought close together.

With `Clc1ccc(-c2nc(Nc3ccc4[nH]nnc4c3)c3ccccc3n2)cc1` [AMR.3 71], the 50% inhibitory concentration (IC50) is 5 µM. The same measure for `c1cncc(-c2nc(NCCCn3ccnc3)c3ccccc3n2)c1` [AMR.322]: > 200 µM; for `COc1ccc(Nc2nc(-c3cccnc3)nc3ccccc23)cc1OC` [AMR.328]: 110 µM. Regarding `Fc1ccc(Nc2nc(-c3cccnc3)nc3ccccc23)cc1` [AMR.331], the IC50 was 44.4 µM.

On to `Cc1cccc(Nc2nc(-c3cccnc3)nc3ccccc23)c1C` [AMR.334], for which the IC50 is 43.2 µM. `O=[N+]([O-])c1ccc(F)c(Nc2nc(-c3cccnc3)nc3ccccc23)c1` [AMR.335]: the IC50 is 6.5 µM. Turning to `Cc1ccc(S(=O)(=O)NNc2nc(-c3cccnc3)nc3ccccc23)cc1` [AMR.336], the half-maximal inhibitory concentration (IC50) is 119 µM. The same measure for `c1cncc(-c2nc(Nc3ccc(-n4ccnc4)cc3)c3ccccc3n2)c1` [AMR.341]: 31.5 µM; for `Clc1ccc(Cl)c(Nc2nc(-c3cccnc3)nc3ccccc23)c1` [AMR.345]: 22 µM; for `c1ccc2c(NCCCn3ccnc3)nc(-c3ccncc3)nc2c1` [AMR.347]: > 200 µM.

`O=[N+]([O-])c1ccc(F)c(Nc2nc(-c3ccncc3)nc3ccccc23)c1` [AMR.348]: the IC50 worked out at 7.2 µM. Turning to `COc1ccc(Nc2nc(-c3ccncc3)nc3ccccc23)cc1OC` [AMR.350], the IC50 is > 200 µM.

Turning to `CN(C)c1ccc(Nc2nc(-c3ccncc3)nc3ccccc23)cc1` [AMR.351], the IC50 turned out to be 15.4 µM. On to `Clc1ccc(Cl)c(Nc2nc(-c3ccncc3)nc3ccccc23)c1` [AMR.352], for which the IC50 worked out at 191 µM.

`Fc1ccc(Nc2nc(-c3ccncc3)nc3ccccc23)cc1` [AMR.353]: the 50% inhibitory concentration (IC50) is > 200 µM.

Take `Cc1cccc(Nc2nc(-c3ccncc3)nc3ccccc23)c1C` [AMR.354]: the half-inhibitory concentration (IC50) came out at 165 µM. With `Cc1ccnc(Nc2nc(-c3ccncc3)nc3ccccc23)c1` [AMR.355], the IC50 was determined as 25 µM.

Consider `Cc1ccc(S(=O)(=O)NNc2nc(-c3ccncc3)nc3ccccc23)cc1` [AMR.356], for which the half-maximal inhibitory concentration (IC50) was 156 µM.

On to `c1ccc2c(Nc3ccc4[nH]nnc4c3)nc(-c3ccncc3)nc2c1` [AMR.358], for which the half-inhibitory concentration (IC50) is 5 µM.

On to `c1ccc2c(Nc3ccc(-n4ccnc4)cc3)nc(-c3ccncc3)nc2c1` [AMR.359], for which the IC50 came out at 37.5 µM. Regarding `CCOC(=O)c1ccc(Nc2nc(-c3ccc(Cl)cc3)nc3ccccc23)cc1` [AMR.361], the IC50 was > 200 µM. Take `Clc1ccc(-c2nc(Nc3cc(Cl)ccc3Cl)c3ccccc3n2)cc1` [AMR.362]: the concentration for half-maximal inhibition (IC50) is > 200 µM. For `COc1ccc(Nc2nc(-c3ccc(Cl)cc3)nc3ccccc23)cc1OC` [AMR.363], the IC50 was determined as 54.8 µM. Regarding `Fc1ccc(Nc2nc(-c3ccc(Cl)cc3)nc3ccccc23)cc1` [AMR.364], the IC50 is > 200 µM.

`Cc1cccc(Nc2nc(-c3ccc(Cl)cc3)nc3ccccc23)c1C` [AMR.365]: the IC50 was > 200 µM. As to `O=[N+]([O-])c1ccc(F)c(Nc2nc(-c3ccc(Cl)cc3)nc3ccccc23)c1` [AMR.366], the IC50 was > 200 µM.

For the molecule `Clc1ccc(-c2nc(NCCCn3ccnc3)c3ccccc3n2)cc1` [AMR.367], the IC50 was > 200 µM. As to `CN(C)c1ccc(Nc2nc(-c3ccc(Cl)cc3)nc3ccccc23)cc1` [AMR.368], the IC50 was found to be 33.7 µM.

For the molecule `Cc1ccc(S(=O)(=O)NNc2nc(-c3ccc(Cl)cc3)nc3ccccc23)cc1` [AMR.370], the IC50 is > 200 µM.

In the case of `Cn1nnc2cc(Nc3nc(-c4cccnc4)nc4ccccc34)ccc21` [AMR.372], the 50% inhibitory concentration (IC50) worked out at 6.4 µM.

`Cn1nnc2cc(Nc3nc(-c4ccncc4)nc4ccccc34)ccc21` [AMR.373]: the concentration for half-maximal inhibition (IC50) was found to be 17.3 µM. For the molecule `Cn1nnc2cc(Nc3nc(-c4ccc(Cl)cc4)nc4ccccc34)ccc21` [AMR.374], the IC50 is 6.6 µM.

For the molecule `CN(C)c1ccc(Nc2nc(-c3cccnc3)nc3ccccc23)cc1` [AMR.378], the 50% inhibitory concentration (IC50) was > 200 µM. The same measure for `CN(C)c1cccc(Nc2nc(-c3cccnc3)nc3ccccc23)c1` [AMR.379]: 217 µM.

In the case of `CN(C)c1cccc(Nc2nc(-c3ccc(Cl)cc3)nc3ccccc23)c1` [AMR.380], the concentration for half-maximal inhibition (IC50) is 157 µM. With `CN(C)c1cccc(Nc2nc(-c3ccncc3)nc3ccccc23)c1` [AMR.381], the 50% inhibitory concentration (IC50) is 130 µM.

In the case of `CCOC(=O)c1ccc(Nc2nc(-c3ccc(Cl)cc3Cl)nc3ccccc23)cc1` [AMR.390], the IC50 was > 200 µM. On to `O=[N+]([O-])c1ccc(F)c(Nc2nc(-c3ccc(Cl)cc3Cl)nc3ccccc23)c1` [AMR.391], for which the 50% inhibitory concentration (IC50) is > 200 µM.

As to `Clc1ccc(-c2nc(NCCCn3ccnc3)c3ccccc3n2)c(Cl)c1` [AMR.392], the IC50 was > 200 µM. With `Clc1ccc(-c2nc(Nc3ccc4[nH]nnc4c3)c3ccccc3n2)c(Cl)c1` [AMR.393], the 50% inhibitory concentration (IC50) was determined as 2 µM. For `COc1ccc(Nc2nc(-c3ccc(Cl)cc3Cl)nc3ccccc23)cc1OC` [AMR.395] the value was 121 µM. Take `Clc1ccc(-c2nc(Nc3cc(Cl)ccc3Cl)c3ccccc3n2)c(Cl)c1` [AMR.396]: the IC50 was > 200 µM. For `Fc1ccc(Nc2nc(-c3ccc(Cl)cc3Cl)nc3ccccc23)cc1` [AMR.397] the value was > 200 µM. Turning to `Cc1ccc(S(=O)(=O)NNc2nc(-c3ccccc3Cl)nc3ccccc23)cc1` [AMR.400], the IC50 is > 200 µM.

Regarding `Cn1nnc2cc(Nc3nc(-c4ccc(Cl)cc4Cl)nc4ccccc34)ccc21` [AMR.401], the IC50 was found to be 41.8 µM.

Take `CN(C)c1ccc(Nc2nc(-c3ccc(Cl)cc3Cl)nc3ccccc23)cc1` [AMR.402]: the half-inhibitory concentration (IC50) came out at 26.7 µM. As for `CN(C)c1cccc(Nc2nc(-c3ccc(Cl)cc3Cl)nc3ccccc23)c1` [AMR.403], the IC50 was 41.1 µM. `O=[N+]([O-])c1ccc(F)c(Nc2nc(-c3ccccn3)nc3ccccc23)c1` [AMR.416]: the IC50 turned out to be 2.3 µM. Consider `Cn1nnc2cc(Nc3nc(-c4ccccn4)nc4ccccc34)ccc21` [AMR.421], for which the IC50 came out at 33.7 µM. With `c1ccc(-c2nc(Nc3ccc4[nH]nnc4c3)c3ccccc3n2)nc1` [AMR.422], the IC50 amounted to 3.2 µM.

Turning to `O=[N+]([O-])c1cc(F)ccc1Nc1nc(-c2cccnc2)nc2ccccc12` [AMR.426], the concentration for half-maximal inhibition (IC50) is 14.5 µM. For `Fc1ccc(Cl)cc1Nc1nc(-c2cccnc2)nc2ccccc12` [AMR.427], the IC50 was determined as 16.5 µM. For `O=[N+]([O-])c1ccc(-c2nc(Nc3cc([N+](=O)[O-])ccc3F)c3ccccc3n2)cc1` [AMR.428], the IC50 was determined as 115 µM.

Consider `O=[N+]([O-])c1ccc(-c2nc(Nc3ccc4[nH]nnc4c3)c3ccccc3n2)cc1` [AMR.429], for which the 50% inhibitory concentration (IC50) amounted to 2.4 µM. In the case of `Cn1nnc2cc(Nc3nc(-c4ccc([N+](=O)[O-])cc4)nc4ccccc34)ccc21` [AMR.437], the IC50 was found to be 50.9 µM. As to `O=[N+]([O-])c1ccc(F)c(Nc2nc(-c3ccc(C(F)(F)F)cc3)nc3ccccc23)c1` [AMR.444], the IC50 is > 200 µM.

Take `FC(F)(F)c1ccc(-c2nc(Nc3ccc4[nH]nnc4c3)c3ccccc3n2)cc1` [AMR.445]: the IC50 was 53.2 µM.

Consider `Cn1nnc2cc(Nc3nc(-c4ccc(C(F)(F)F)cc4)nc4ccccc34)ccc21` [AMR.446], for which the IC50 was determined as 28.2 µM. For `O=[N+]([O-])c1cc(Nc2nc(-c3ccncc3)nc3ccccc23)ccc1F` [AMR.449], the IC50 came to 2.9 µM.

With `O=[N+]([O-])c1cc(F)ccc1Nc1nc(-c2ccncc2)nc2ccccc12` [AMR.450], the half-inhibitory concentration (IC50) was found to be 169 µM. As for `Fc1ccc(Cl)cc1Nc1nc(-c2ccncc2)nc2ccccc12` [AMR.451], the IC50 is 15.1 µM. `Fc1cc(Nc2nc(-c3ccncc3)nc3ccccc23)c(F)cc1Br` [AMR.455]: the half-inhibitory concentration (IC50) is 15.3 µM. For `O=[N+]([O-])c1ccc(O)c(Nc2nc(-c3ccncc3)nc3ccccc23)c1` [AMR.456] the value was 10.2 µM.

On to `Cc1ccc(Nc2nc(-c3ccncc3)nc3ccccc23)c(O)c1` [AMR.457], for which the half-maximal inhibitory concentration (IC50) is > 200 µM. Regarding `O=[N+]([O-])c1cc(Nc2nc(-c3ccncc3)nc3ccccc23)ccc1O` [AMR.458], the half-inhibitory concentration (IC50) was 5.8 µM. On to `O=[N+]([O-])c1cccc(O)c1Nc1nc(-c2ccncc2)nc2ccccc12` [AMR.461], for which the IC50 stood at 57.4 µM. Regarding `O=C(O)c1ccc(Nc2nc(-c3ccncc3)nc3ccccc23)c(O)c1` [AMR.462], the IC50 is 15.2 µM. On to `Cn1nc2ccc(Nc3nc(-c4ccncc4)nc4ccccc34)cc2n1` [AMR.464], for which the half-maximal inhibitory concentration (IC50) came out at 97.4 µM. On to `CNc1ccc([N+](=O)[O-])cc1Nc1nc(-c2ccncc2)nc2ccccc12` [AMR.466], for which the IC50 amounted to 4.7 µM.

Consider `CN(c1ccc2c(c1)nnn2C)c1nc(-c2ccncc2)nc2ccccc12` [AMR.471], for which the IC50 is > 200 µM. As to `O=[N+]([O-])c1ccc(F)c(Nc2ncnc3ccccc23)c1` [AMR.475], the concentration for half-maximal inhibition (IC50) was > 200 µM.

Regarding `c1ccc2c(Nc3ccc4[nH]nnc4c3)ncnc2c1` [AMR.476], the half-maximal inhibitory concentration (IC50) is 137 µM.

On to `O=[N+]([O-])c1ccc(O)c(Nc2nc(-c3cccnc3)nc3ccccc23)c1` [AMR.481], for which the IC50 was determined as 2.1 µM. As for `Fc1cc(Nc2nc(-c3cccnc3)nc3ccccc23)c(F)cc1Br` [AMR.483], the IC50 stood at 16.1 µM. With `Cc1ccc(Nc2nc(-c3cccnc3)nc3ccccc23)c(O)c1` [AMR.484], the half-maximal inhibitory concentration (IC50) is 179 µM.

`O=[N+]([O-])c1cccc(O)c1Nc1nc(-c2cccnc2)nc2ccccc12` [AMR.492]: the concentration for half-maximal inhibition (IC50) was found to be 19.7 µM. The same measure for `O=C(O)c1ccc(Nc2nc(-c3cccnc3)nc3ccccc23)c(O)c1` [AMR.493]: 30 µM; for `CCOC(=O)c1ccc(Nc2cc(-c3cccnc3)nc3ccccc23)cc1` [AMR.504]: 76 µM.

One may read the IC50 as the concentration that inhibits the measured activity by half.
